Assay results as given in US20090093460A1, “Compositions” (AstraZeneca AB, priority 2003, published 2009).
Read-outs that look alike come from different tables or passages of the source.

Tests used:
[1] = Oral bioavailability in Sprague-Dawley rats; type: in vivo; details: rat, plasma, 30 μmol/kg
Method: 11-piperazin-1-yldibenzo[b,f][1,4]thiazepine was administered to 3 Sprague-Dawley rats each either intravenously or orally at doses of 10 μmol/kg or 30 μmol/kg, respectively, in a sodium citrate (pH 3) formulation. Blood samples were removed from each animal at several time points after dosing. The blood samples were centrifuged to produce plasma. Aliquots of each plasma sample were analyzed by an HPLC method with mass spectrometric detection to measure 11-piperazin-1-yldibenzo[b,f][1,4]thiazepine. The area under the plasma concentration curves (AUC) constructed from the sample measurements following iv or po administration were used to calculate oral biovailability.

Adrenergic α1B = target: T1, Adrenergic α1B (Rattus norvegicus, UniProt P15823); test: Radioligand binding 203200 Adrenergic α1B
T1 construct: 203200
T1 sequence (P15823 1-515): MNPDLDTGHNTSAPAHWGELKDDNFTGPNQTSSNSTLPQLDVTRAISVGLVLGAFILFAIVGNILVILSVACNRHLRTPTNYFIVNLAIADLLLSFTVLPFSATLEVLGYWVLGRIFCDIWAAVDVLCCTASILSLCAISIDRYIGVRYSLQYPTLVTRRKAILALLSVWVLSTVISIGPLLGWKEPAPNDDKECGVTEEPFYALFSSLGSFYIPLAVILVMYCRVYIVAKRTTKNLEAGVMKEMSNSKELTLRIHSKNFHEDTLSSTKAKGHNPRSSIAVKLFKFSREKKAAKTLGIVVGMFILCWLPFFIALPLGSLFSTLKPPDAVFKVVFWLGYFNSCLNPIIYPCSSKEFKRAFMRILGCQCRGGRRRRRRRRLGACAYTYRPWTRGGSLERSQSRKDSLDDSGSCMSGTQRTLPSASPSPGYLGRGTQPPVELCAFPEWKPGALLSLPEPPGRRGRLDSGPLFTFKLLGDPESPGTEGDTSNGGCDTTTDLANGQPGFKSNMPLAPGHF
Text: Receptor binding methods, (α-adrenergic subtype specific, are provided below.

[2] = target: Adrenergic α1* Non-Selective; test: Radioligand binding 203500 Adrenergic α1* Non-Selective; parameters: species or system rat
Text: (§1) Receptor binding methods, α-adrenergic nonselective, are provided below.

D1 receptors = target: T2, D1 receptors (Homo sapiens, UniProt P21728); test: PET scans of primate subjects, D1 occupancy; type: in vivo; details: preliminary PET scans
T2 construct: from tissue; host or cells: brain of living primate subjects (PET)
Text: The compound of Formula I is a dibenzothiazepine that has shown antidopaminergic activity.

[3] = target: Adrenergic α2* Non-Selective; test: Radioligand binding 203900 Adrenergic α2* Non-Selective; parameters: species or system rat
Text: as §1

H1 receptor = H1 receptor (Homo sapiens, UniProt P35367); test: H1 receptor binding
Method: The H1 receptor binding method was carried out in accordance with the method set out in De Backer M D et al. Biochem. Biophys. Res Commun. 197 (3); 1601, 1993.

Brain exposure in rats = type: in vivo; details: rat; for Kp at 1 h: brain
Method: Brain exposure was measured in rats. For concentrations of 11-piperazin-1-yldibenzo[b,f][1,4]thiazepine in brain, rats were dosed either po or iv (n=3 per dose route). At one hour after compound administration blood and brain samples were obtained and then processed for analysis using HPLC/MS to measure concentrations of 11-piperazin-1-yldibenzo[b,f][ 1,4]thiazepine.

rats = test: D-amphetamine locomotor activity test; type: in vivo, rat; details: freebase, s.c.
Text: The methods and procedures used can be found in Warawa et al., J. Med. Chem., 2001, 44 (3), 372-389, and are incorporated herein by reference.

Sequence of H1 receptor (P35367 whole entry): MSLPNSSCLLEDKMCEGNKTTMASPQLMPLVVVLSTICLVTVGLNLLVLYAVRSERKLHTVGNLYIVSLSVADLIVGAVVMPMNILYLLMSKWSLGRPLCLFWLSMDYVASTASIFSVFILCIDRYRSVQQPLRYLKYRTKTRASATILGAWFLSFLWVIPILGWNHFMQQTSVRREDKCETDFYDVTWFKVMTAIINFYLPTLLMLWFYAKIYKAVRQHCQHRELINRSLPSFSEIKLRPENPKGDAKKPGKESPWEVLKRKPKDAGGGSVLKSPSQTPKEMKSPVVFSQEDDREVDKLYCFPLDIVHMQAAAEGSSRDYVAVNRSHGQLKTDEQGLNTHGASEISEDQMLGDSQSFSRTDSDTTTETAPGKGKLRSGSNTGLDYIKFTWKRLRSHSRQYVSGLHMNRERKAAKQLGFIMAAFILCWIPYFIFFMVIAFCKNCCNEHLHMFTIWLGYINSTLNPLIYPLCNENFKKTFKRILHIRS
T2 sequence (P21728 whole entry): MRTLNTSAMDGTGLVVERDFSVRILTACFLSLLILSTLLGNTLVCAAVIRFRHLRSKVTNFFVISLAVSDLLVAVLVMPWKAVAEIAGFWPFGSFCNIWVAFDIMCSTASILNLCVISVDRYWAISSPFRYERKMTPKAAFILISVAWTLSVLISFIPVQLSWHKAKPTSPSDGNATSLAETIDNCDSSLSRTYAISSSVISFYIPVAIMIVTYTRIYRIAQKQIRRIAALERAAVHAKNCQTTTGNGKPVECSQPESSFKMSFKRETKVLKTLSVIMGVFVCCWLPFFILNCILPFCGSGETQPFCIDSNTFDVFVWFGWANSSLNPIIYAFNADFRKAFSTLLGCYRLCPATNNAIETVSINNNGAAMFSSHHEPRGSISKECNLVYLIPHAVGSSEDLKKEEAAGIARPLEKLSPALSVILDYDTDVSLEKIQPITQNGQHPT

c1ccc2c(c1)N=C(N1CCNCC1)c1ccccc1S2 [11-piperazin-1-yldibenzo[b,f][1,4]thiazepine]
bioavailability [1]: 11%
n (Adrenergic α1B): 1.1 ± 0.024
inhibition at 0.1 µM (Adrenergic α1B; 0.1 μM): 50%
Ki (Adrenergic α1B; read-out: ki): 75 ± 9 nM
Ki (Adrenergic α1B; α1B, read-out: Affinity): 75 nM
IC50 [2]: 69.3 nM
Ki [2]: 37.2 nM
% INH. ([2]; 0.1 μM): 61%
receptor occupancy by PET (D1 receptors): occupies
IC50 [3]: 1410 nM
Ki [3]: 1290 nM
% INH. ([3]; 10 μM): 73%
Ki (H1 receptor): 1.15 nM
Kp at 1 h (Brain exposure in rats; 30 umol/kg, one hour after 30 μmol/kg po, read-out: brain/plasma exposure ratio): 3.4
Kp at 1 h (Brain exposure in rats; after iv dosing, read-out: brain:plasma concentration ratio): 4.6
concentration at 1 h (Brain exposure in rats; plasma, 30 μmol/kg, heading: average concentration in plasma, one hour after 30 μmol/kg po): 658 nM
in vivo antipsychotic activity (rats): not found to be efficacious
in vivo antipsychotic activity (rats; listed as compound of Formula I): not shown to be efficacious
